Reference: PubChem BioAssay (NCI)
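Exposure lasted 48 hours, with cells grown in 96-well plates and compounds tested at five concentrations. TGI marks complete inhibition of growth.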

How the values were obtained:
Assay in all cases: NCI anticancer screen, dose series, 48 h
ACHN renal = tested on: ACHN renal
UO-31 renal = tested on: UO-31 renal
SK-MEL-2 melanoma = tested on: SK-MEL-2 melanoma
EKVX NSCLC = tested on: EKVX NSCLC
LOX IMVI melanoma = tested on: LOX IMVI melanoma
M19-MEL melanoma = tested on: M19-MEL melanoma
OVCAR-3 ovarian = tested on: OVCAR-3 ovarian
CAKI-1 renal = tested on: CAKI-1 renal
NCI-H522 lung = tested on: NCI-H522 lung
KM20L2 colon = tested on: KM20L2 colon
DLD-1 colon = tested on: DLD-1 colon
DMS 273 small cell lung = tested on: DMS 273 small cell lung
SF-268 CNS = tested on: SF-268 CNS
OVCAR-4 ovarian = tested on: OVCAR-4 ovarian
SN12C renal = tested on: SN12C renal
HCT-15 colon = tested on: HCT-15 colon
SK-MEL-5 melanoma = tested on: SK-MEL-5 melanoma
RXF 393 renal = tested on: RXF 393 renal
NCI-H23 lung = tested on: NCI-H23 lung
NCI-H226 lung = tested on: NCI-H226 lung
OVCAR-5 ovarian = tested on: OVCAR-5 ovarian
SF-295 CNS = tested on: SF-295 CNS
IGROV1 ovarian = tested on: IGROV1 ovarian
TK-10 renal = tested on: TK-10 renal
HCC-2998 colon = tested on: HCC-2998 colon
SW-620 colon = tested on: SW-620 colon
M14 melanoma = tested on: M14 melanoma
COLO 205 colon = tested on: COLO 205 colon
SK-OV-3 ovarian = tested on: SK-OV-3 ovarian
HOP-62 NSCLC = tested on: HOP-62 NSCLC
NCI-H460 lung = tested on: NCI-H460 lung
UACC-257 melanoma = tested on: UACC-257 melanoma
K-562 leukemia = tested on: K-562 leukemia
RPMI-8226 leukemia = tested on: RPMI-8226 leukemia
LXFL 529 NSCLC = tested on: LXFL 529 NSCLC
UACC-62 melanoma = tested on: UACC-62 melanoma
U251 CNS = tested on: U251 CNS
CCRF-CEM leukemia = tested on: CCRF-CEM leukemia
HT29 colon = tested on: HT29 colon
SK-MEL-28 melanoma = tested on: SK-MEL-28 melanoma
HCT-116 colon = tested on: HCT-116 colon
HL-60(TB) leukemia = tested on: HL-60(TB) leukemia
MOLT-4 leukemia = tested on: MOLT-4 leukemia
SNB-75 CNS = tested on: SNB-75 CNS
KM12 colon = tested on: KM12 colon
SR leukemia = tested on: SR leukemia
MALME-3M melanoma = tested on: MALME-3M melanoma
HOP-92 NSCLC = tested on: HOP-92 NSCLC
OVCAR-8 ovarian = tested on: OVCAR-8 ovarian

Measured: TGI

CN(C)C(=O)OC1C(=O)N(C)c2ccc(Cl)cc2C2(c3ccccc3)N1C2(Cl)Cl (centres undefined)
> 100 µM: all assays above
